# Results as given in patent US20070082871A1, “Antiresorptive mutual salt of raloxifene and bisphosphonic acid” (HANMI PHARM. CO., LTD., priority 2003, published 2007).
# Read-outs that look alike come from different tables or passages of the source.
# Key:
# ovary-removed rats [1] = conditions: for Bone volume Vol.: (bone volume)/(metaphysis volume) × 100; for Trabecular volume Vol.: (trabecular volume)/(epiphysis volume) × 100; for BMD / Stiffness Max. load / Stiffness Stiff.: femur; for BMD / Stiffness Max. load / Stiffness Stiff. / Blood calcium density Conc.: oophorectomy rats, oral once a day 8 weeks; for Stiffness Relativ. Stiff.: relative Max. Load value, OVX control = 1.00; for Trabecular volume Relativ Vol / BMD Relativ. Density / Blood calcium density Relativ. Conc. / Bone volume Relativ Vol: relative to OVX control = 1.00
# Description: (§1) In order to investigate the effects of the inventive mutual salts on BMD, bone stiffness, serum cholesterol level and calcium density, in vivo tests were carried out as follows.
# (§2) Also, 1.5% carboxymethylcellulose alone was administrated in a same manner to each of ovary-removed rats (group OVX) and normal rats (control, group Sham). After 8 weeks, a femur sample was obtained from each test groups to measure BMD, maximum load, stiffness, trabecular volume of epiphysis, bone volume of metaphysis, blood cholesterol level and blood calcium density.
# ovary-removed rats [2] = assay: In vivo test: blood cholesterol level; design: species or system rats (Sprague-Dawley); conditions: for Total blood cholesterol Conc.: oophorectomy rats, oral once a day 8 weeks; for Total blood cholesterol Relativ. Conc.: relative to OVX control = 1.00
# Description: as §1, §2
# [3] = in words, as compared with the individual raloxifene hydrochloride or alendronate
molecule,measurement,setting,value
"NCCCC(O)(P(=O)(O)O)P(=O)(O)O [Alendronate, sodium alendronate trihydrate]",Bone volume Vol.,ovary-removed rats [1]; 1.0 mg/kg (T1),56.46 ± 17.93%
same,Trabecular volume Vol.,ovary-removed rats [1]; 1.0 mg/kg (T1),20.27 ± 7.76%
same,BMD,ovary-removed rats [1]; 1.0 mg/kg (T1),92.57 ± 5.64 mg/cm^2
same,Stiffness Max. load,ovary-removed rats [1]; 1.0 mg/kg (T1),19.22 ± 2.14 N
same,Stiffness Stiff.,ovary-removed rats [1]; 1.0 mg/kg (T1),19.02 ± 3.86 N/mm
same,Stiffness Relativ. Stiff.,ovary-removed rats [1]; 1.0 mg/kg (T1),0.88
same,Trabecular volume Relativ Vol,ovary-removed rats [1]; 1.0 mg/kg (T1),1.75
same,Total blood cholesterol Conc.,ovary-removed rats [2]; 1.0 mg/kg (T1),98.387 ± 17.23 mg/dL
same,Total blood cholesterol Relativ. Conc.,ovary-removed rats [2]; 1.0 mg/kg (T1),0.93
"Cl.O=C(c1ccc(OCCN2CCCCC2)cc1)c1c(-c2ccc(O)cc2)sc2cc(O)ccc12 [Raloxifene hydrochloride, 6-hydroxy-2-(4-hydroxyphenyl)benzo[b]thien-3-yl 4-[2-(1-piperidinyl)ethoxy]phenyl methanone hydrochloride]",Bone volume Vol.,ovary-removed rats [1]; 1.9 mg/kg (T2),75.96 ± 17.61%
same,Bone volume Vol.,ovary-removed rats [1]; 5.6 mg/kg (T3),65.56 ± 15.33%
same,Trabecular volume Vol.,ovary-removed rats [1]; 1.9 mg/kg (T2),11.25 ± 2.57%
same,Trabecular volume Vol.,ovary-removed rats [1]; 5.6 mg/kg (T3),15.15 ± 4.08%
same,BMD,ovary-removed rats [1]; 1.9 mg/kg (T2),91.09 ± 6.98 mg/cm^2
same,Stiffness Max. load,ovary-removed rats [1]; 1.9 mg/kg (T2),30.00 ± 3.24 N
same,Stiffness Stiff.,ovary-removed rats [1]; 1.9 mg/kg (T2),33.07 ± 9.55 N/mm
same,BMD,ovary-removed rats [1]; 5.6 mg/kg (T3),93.76 ± 6.22 mg/cm^2
same,Stiffness Max. load,ovary-removed rats [1]; 5.6 mg/kg (T3),32.09 ± 4.37 N
same,Stiffness Stiff.,ovary-removed rats [1]; 5.6 mg/kg (T3),38.64 ± 15.2 N/mm
same,Blood calcium density Conc.,ovary-removed rats [1]; 1.9 mg/kg (T2),9.20 ± 0.33 mg/dL
same,Blood calcium density Conc.,ovary-removed rats [1]; 5.6 mg/kg (T3),9.42 ± 0.23 mg/dL
same,Stiffness Relativ. Stiff.,ovary-removed rats [1]; 1.9 mg/kg (T2),1.37
same,Stiffness Relativ. Stiff.,ovary-removed rats [1]; 5.6 mg/kg (T3),1.46
same,BMD Relativ. Density,ovary-removed rats [1]; 1.9 mg/kg (T2),1.17
same,Blood calcium density Relativ. Conc.,ovary-removed rats [1]; 1.9 mg/kg (T2),0.98
same,Bone volume Relativ Vol,ovary-removed rats [1]; 1.9 mg/kg (T2),2.64
same,Trabecular volume Relativ Vol,ovary-removed rats [1]; 1.9 mg/kg (T2),0.97
same,BMD Relativ. Density,ovary-removed rats [1]; 5.6 mg/kg (T3),1.20
same,Blood calcium density Relativ. Conc.,ovary-removed rats [1]; 5.6 mg/kg (T3),1.00
same,Bone volume Relativ Vol,ovary-removed rats [1]; 5.6 mg/kg (T3),2.28
same,Trabecular volume Relativ Vol,ovary-removed rats [1]; 5.6 mg/kg (T3),1.31
same,Total blood cholesterol Conc.,ovary-removed rats [2]; 1.9 mg/kg (T2),41.40 ± 9.71 mg/dL
same,Total blood cholesterol Conc.,ovary-removed rats [2]; 5.6 mg/kg (T3),40.83 ± 14.2 mg/dL
same,Total blood cholesterol Relativ. Conc.,ovary-removed rats [2]; 1.9 mg/kg (T2),0.39
same,Total blood cholesterol Relativ. Conc.,ovary-removed rats [2]; 5.6 mg/kg (T3),0.39
raloxifene alendronate pentahydrate,Bone volume Vol.,ovary-removed rats [1]; 2.9 mg/kg (T4),68.00 ± 9.00%
same,Trabecular volume Vol.,ovary-removed rats [1]; 2.9 mg/kg (T4),17.81 ± 2.49%
same,BMD,ovary-removed rats [1]; 2.9 mg/kg (T4),99.28 ± 6.25 mg/cm^2
same,Stiffness Max. load,ovary-removed rats [1]; 2.9 mg/kg (T4),26.50 ± 0.73 N
same,Stiffness Stiff.,ovary-removed rats [1]; 2.9 mg/kg (T4),35.34 ± 11.3 N/mm
same,"BMD, bone stiffness, trabecular volume and bone volume",ovary-removed rats [1]; [3],markedly enhances
same,blood calcium level,ovary-removed rats [1]; [3],effectively controls
same,Blood calcium density Conc.,ovary-removed rats [1]; 2.9 mg/kg (T4),6.69 ± 0.94 mg/dL
same,Stiffness Relativ. Stiff.,ovary-removed rats [1]; 2.9 mg/kg (T4),1.21
same,BMD Relativ. Density,ovary-removed rats [1]; 2.9 mg/kg (T4),1.27
same,Blood calcium density Relativ. Conc.,ovary-removed rats [1]; 2.9 mg/kg (T4),0.71
same,Bone volume Relativ Vol,ovary-removed rats [1]; 2.9 mg/kg (T4),2.37
same,Trabecular volume Relativ Vol,ovary-removed rats [1]; 2.9 mg/kg (T4),1.54
same,blood cholesterol level,ovary-removed rats [2]; [3],effectively controls
same,Total blood cholesterol Conc.,ovary-removed rats [2]; 2.9 mg/kg (T4),66.86 ± 9.68 mg/dL
same,Total blood cholesterol Relativ. Conc.,ovary-removed rats [2]; 2.9 mg/kg (T4),0.64
